{"source": "ChEMBL document CHEMBL4229561", "about": "“Design, synthesis, and biological evaluation of selective and potent Carbazole-based butyrylcholinesterase inhibitors” (Bioorg Med Chem, 2018)", "key": {"Cholinesterase [1]": {"target": "T1, Cholinesterase (Equus caballus, UniProt P81908)", "T1 sequence (P81908 whole entry)": "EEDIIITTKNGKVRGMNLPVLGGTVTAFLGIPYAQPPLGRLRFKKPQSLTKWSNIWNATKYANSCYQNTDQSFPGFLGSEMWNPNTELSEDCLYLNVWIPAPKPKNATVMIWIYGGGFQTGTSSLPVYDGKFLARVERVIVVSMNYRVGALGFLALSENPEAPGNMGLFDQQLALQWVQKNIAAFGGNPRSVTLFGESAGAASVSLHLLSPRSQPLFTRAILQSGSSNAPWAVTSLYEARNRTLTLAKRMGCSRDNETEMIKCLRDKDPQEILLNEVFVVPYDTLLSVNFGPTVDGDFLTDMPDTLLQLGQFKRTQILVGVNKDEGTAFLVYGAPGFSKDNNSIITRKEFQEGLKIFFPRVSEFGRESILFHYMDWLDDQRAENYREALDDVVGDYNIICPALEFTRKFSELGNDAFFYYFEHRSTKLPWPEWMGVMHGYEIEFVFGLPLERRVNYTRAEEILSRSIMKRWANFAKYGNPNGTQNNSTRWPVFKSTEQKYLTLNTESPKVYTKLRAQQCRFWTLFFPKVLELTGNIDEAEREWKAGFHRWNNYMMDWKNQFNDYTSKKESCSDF", "assay": "Inhibition of equine serum BuChE using butyrylthiocholine iodide as substrate preincubated for 10 mins followed by substrate addition measured for 5 mins by Ellman's method"}, "[2]": {"assay": "Selectivity index, ratio of IC50 for electric eel AChE to IC50 for equine serum BuChE"}, "Acetylcholinesterase": {"target": "Acetylcholinesterase (Electrophorus electricus, UniProt O42275)", "sequence (O42275 whole entry)": "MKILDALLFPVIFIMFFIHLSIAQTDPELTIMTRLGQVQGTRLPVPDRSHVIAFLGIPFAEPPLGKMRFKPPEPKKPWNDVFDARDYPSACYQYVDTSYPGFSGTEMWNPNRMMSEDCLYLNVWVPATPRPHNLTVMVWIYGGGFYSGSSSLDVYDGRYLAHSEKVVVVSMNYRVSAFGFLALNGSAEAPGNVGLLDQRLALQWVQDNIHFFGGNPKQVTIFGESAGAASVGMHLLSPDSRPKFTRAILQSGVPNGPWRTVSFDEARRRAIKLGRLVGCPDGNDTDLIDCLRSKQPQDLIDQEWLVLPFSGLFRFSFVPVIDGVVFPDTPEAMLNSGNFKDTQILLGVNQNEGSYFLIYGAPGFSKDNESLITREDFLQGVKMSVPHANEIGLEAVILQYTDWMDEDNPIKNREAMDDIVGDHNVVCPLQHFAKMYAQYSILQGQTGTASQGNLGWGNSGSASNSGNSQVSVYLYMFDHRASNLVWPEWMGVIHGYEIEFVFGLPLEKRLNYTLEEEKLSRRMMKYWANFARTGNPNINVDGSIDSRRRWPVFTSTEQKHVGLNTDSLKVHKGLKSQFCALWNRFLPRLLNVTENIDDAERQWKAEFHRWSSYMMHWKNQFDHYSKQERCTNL", "assay": "Inhibition of electric eel AChE using acetylthiocholine iodide as substrate preincubated for 10 mins followed by substrate addition measured for 5 mins by Ellman's method"}, "Rattus norvegicus [3]": {"tested_on": "Rattus norvegicus", "assay": "Reversal of scopolamine-induced memory impairment in albino Wistar rat assessed as increase in time spent in target quadrant in probe day at 2.5 mg/kg, ip by Morris water maze test", "type": "functional, organism-based"}, "Rattus norvegicus [4]": {"tested_on": "Rattus norvegicus", "assay": "Reversal of scopolamine-induced memory impairment in albino Wistar rat assessed as decrease in mean training period traveled distance to find platform at 2.5 mg/kg, ip by Morris water maze test", "type": "functional, organism-based"}, "Rattus norvegicus [5]": {"tested_on": "Rattus norvegicus", "assay": "Reversal of scopolamine-induced memory impairment in albino Wistar rat assessed as effect on swimming speed at 2.5 mg/kg, ip by Morris water maze test", "type": "functional, organism-based"}, "[6]": {"target": "Amyloid-beta precursor protein (Homo sapiens) (UniProt P05067)", "sequence (P05067 whole entry)": "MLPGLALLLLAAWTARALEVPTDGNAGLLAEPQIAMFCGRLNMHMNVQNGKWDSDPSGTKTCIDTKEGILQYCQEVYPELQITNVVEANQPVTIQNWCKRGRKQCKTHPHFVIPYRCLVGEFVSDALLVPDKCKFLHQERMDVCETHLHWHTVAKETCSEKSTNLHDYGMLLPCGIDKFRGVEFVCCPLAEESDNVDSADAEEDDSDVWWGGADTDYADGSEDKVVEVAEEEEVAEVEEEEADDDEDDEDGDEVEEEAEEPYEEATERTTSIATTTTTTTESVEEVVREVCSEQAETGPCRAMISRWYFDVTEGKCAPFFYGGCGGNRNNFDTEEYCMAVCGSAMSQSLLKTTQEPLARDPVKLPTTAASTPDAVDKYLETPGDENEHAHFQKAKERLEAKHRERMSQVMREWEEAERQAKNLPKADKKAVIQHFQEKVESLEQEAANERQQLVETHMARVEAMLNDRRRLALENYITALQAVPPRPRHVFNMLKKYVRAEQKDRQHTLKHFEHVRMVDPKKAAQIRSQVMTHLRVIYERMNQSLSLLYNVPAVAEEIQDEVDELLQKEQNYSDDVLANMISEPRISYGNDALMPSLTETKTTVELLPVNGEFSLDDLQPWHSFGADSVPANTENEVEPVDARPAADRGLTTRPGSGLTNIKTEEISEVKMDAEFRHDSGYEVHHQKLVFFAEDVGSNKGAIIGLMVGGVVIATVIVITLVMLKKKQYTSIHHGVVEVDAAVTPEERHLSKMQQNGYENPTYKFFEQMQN", "assay": "Inhibition of HFIP-pretreated amyloid beta (1 to 42) (unknown origin) self-induced aggregation at 10 uM after 48 hrs by thioflavin-T fluorescence assay relative to control"}, "[7]": {"target": "Cholinesterase (Equus caballus) (UniProt P81908)", "sequence (P81908 whole entry)": "as the sequence (P81908 whole entry) above", "assay": "Potency index, ratio of donepezile IC50 to compound IC50 for inhibition of equine serum BuChE"}, "Rattus norvegicus [8]": {"tested_on": "Rattus norvegicus", "assay": "Reversal of scopolamine-induced memory impairment in albino Wistar rat assessed as decrease in mean training period traveled distance to find platform at 10 mg/kg, ip by Morris water maze test", "type": "functional, organism-based"}, "PC-12 [9]": {"tested_on": "PC-12", "assay": "Neuroprotection against H2O2-induced cell death in rat PC12 cells assessed as cell viability at 10 uM preincubated for 3 hrs followed by H2O2 addition measured after 12 hrs by MTT assay relative to control", "type": "functional", "details": "read-out: Activity"}, "Rattus norvegicus [10]": {"tested_on": "Rattus norvegicus", "assay": "Reversal of scopolamine-induced memory impairment in albino Wistar rat assessed as effect on swimming speed at 5 to 20 mg/kg, ip by Morris water maze test", "type": "functional, organism-based"}, "PC-12 [11]": {"tested_on": "PC-12", "assay": "Cytotoxicity against rat PC12 cells assessed as reduction in cell viability at 100 uM by MTT assay", "type": "cell-based", "details": "pc-12, 100 µM"}, "Cholinesterase [12]": {"target": "T1, Cholinesterase", "assay": "Mixed-type inhibition of equine serum BuChE using varying levels of butyrylthiocholine iodide as substrate preincubated for 10 mins followed by substrate addition measured for 5 mins by Lineweaver-Burk plot analysis"}, "Rattus norvegicus [13]": {"tested_on": "Rattus norvegicus", "assay": "Reversal of scopolamine-induced memory impairment in albino Wistar rat assessed as decrease in mean training period scape latency at 10 mg/kg, ip by Morris water maze test", "type": "functional, organism-based"}, "[14]": {"target": "Cholinesterase (Equus caballus) (UniProt P81908)", "assay": "Potency index, ratio of galantamine IC50 to compound IC50 for inhibition of equine serum BuChE"}, "PC-12 [15]": {"tested_on": "PC-12", "assay": "Neuroprotection against H2O2-induced cell death in rat PC12 cells assessed as increase in cell viability at 1 uM preincubated for 3 hrs followed by H2O2 addition measured after 12 hrs by MTT assay", "type": "functional, cell-based"}, "Rattus norvegicus [16]": {"tested_on": "Rattus norvegicus", "assay": "Reversal of scopolamine-induced memory impairment in albino Wistar rat assessed as increase in time spent in target quadrant in probe day at 10 mg/kg, ip by Morris water maze test", "type": "functional, organism-based"}}, "note": "pIC50, pKi: −log10 of the molar value. The source made the active and inactive calls. The calls are words filed in the database; no cut-off is given here."}
{"smiles": "c1ccc(C[n+]2ccc(Cn3c4ccccc4c4ccccc43)cc2)cc1", "values": [{"measurement": "pIC50", "setting": "Cholinesterase [1]", "result": 6.24}, {"measurement": "Ratio IC50", "setting": "[2]", "result": 22.1}, {"measurement": "pIC50", "setting": "Acetylcholinesterase", "result": 4.89}]}
{"smiles": "Clc1ccccc1C[n+]1cccc(Cn2c3ccccc3c3ccccc32)c1", "values": [{"measurement": "pIC50", "setting": "Cholinesterase [1]", "result": 6.42}, {"measurement": "Ratio IC50", "setting": "[2]", "result": "> 263"}, {"measurement": "pIC50", "setting": "Acetylcholinesterase", "result": "< 4.00"}]}
{"smiles": "c1ccc(C[n+]2cccc(Cn3c4ccccc4c4ccccc43)c2)cc1", "values": [{"measurement": "pIC50", "setting": "Cholinesterase [1]", "result": 6.57}, {"measurement": "Ratio IC50", "setting": "[2]", "result": 229}, {"measurement": "pIC50", "setting": "Acetylcholinesterase", "result": 4.21}]}
{"smiles": "Cc1ccccc1C[n+]1ccc(Cn2c3ccccc3c3ccccc32)cc1", "values": [{"measurement": "pIC50", "setting": "Cholinesterase [1]", "result": 6.46}, {"measurement": "Ratio IC50", "setting": "[2]", "result": 34}, {"measurement": "pIC50", "setting": "Acetylcholinesterase", "result": 4.92}]}
{"smiles": "COc1cc2c(cc1OC)C(=O)C(CC1CCN(Cc3ccccc3)CC1)C2", "note": "(stereo not given)", "values": [{"measurement": "Activity", "setting": "Rattus norvegicus [3]", "result": "Active"}, {"measurement": "Activity", "setting": "Rattus norvegicus [4]", "result": "Active"}, {"measurement": "Activity", "setting": "Rattus norvegicus [5]", "result": "inactive"}]}
{"smiles": "Nc1c2c(nc3ccccc13)CCCC2", "values": [{"measurement": "inhibition", "setting": "[6]", "result": 7.7, "unit": "%"}]}
{"smiles": "Clc1ccc(C[n+]2ccc(Cn3c4ccccc4c4ccccc43)cc2)cc1", "values": [{"measurement": "pIC50", "setting": "Cholinesterase [1]", "result": 5.80}, {"measurement": "Ratio IC50", "setting": "[2]", "result": 11.9}, {"measurement": "pIC50", "setting": "Acetylcholinesterase", "result": 4.72}]}
{"smiles": "Fc1cccc(C[n+]2ccc(Cn3c4ccccc4c4ccccc43)cc2)c1", "values": [{"measurement": "pIC50", "setting": "Cholinesterase [1]", "result": 5.96}, {"measurement": "Ratio IC50", "setting": "[2]", "result": 19.3}, {"measurement": "pIC50", "setting": "Acetylcholinesterase", "result": 4.67}]}
{"smiles": "Fc1ccccc1C[n+]1ccc(Cn2c3ccccc3c3ccccc32)cc1", "values": [{"measurement": "pIC50", "setting": "Cholinesterase [1]", "result": 6.17}, {"measurement": "Ratio IC50", "setting": "[2]", "result": 18.9}, {"measurement": "pIC50", "setting": "Acetylcholinesterase", "result": 4.90}]}
{"smiles": "Fc1ccccc1C[n+]1cccc(Cn2c3ccccc3c3ccccc32)c1", "values": [{"measurement": "pIC50", "setting": "Cholinesterase [1]", "result": 6.43}, {"measurement": "Ratio IC50", "setting": "[2]", "result": "> 270"}, {"measurement": "pIC50", "setting": "Acetylcholinesterase", "result": "< 4.00"}]}
{"smiles": "Cc1ccc(C[n+]2ccc(Cn3c4ccccc4c4ccccc43)cc2)cc1", "values": [{"measurement": "pIC50", "setting": "Cholinesterase [1]", "result": 6.09}, {"measurement": "Ratio IC50", "setting": "[2]", "result": 19.3}, {"measurement": "pIC50", "setting": "Acetylcholinesterase", "result": 4.81}]}
{"smiles": "Cc1ccc(C[n+]2cccc(Cn3c4ccccc4c4ccccc43)c2)cc1", "values": [{"measurement": "pIC50", "setting": "Cholinesterase [1]", "result": 6.96}, {"measurement": "Ratio IC50", "setting": "[2]", "result": 210}, {"measurement": "pIC50", "setting": "Acetylcholinesterase", "result": 4.64}]}
{"smiles": "Cc1ccccc1C[n+]1cccc(Cn2c3ccccc3c3ccccc32)c1", "values": [{"measurement": "pIC50", "setting": "Cholinesterase [1]", "result": 6.66}, {"measurement": "Ratio IC50", "setting": "[2]", "result": 239}, {"measurement": "pIC50", "setting": "Acetylcholinesterase", "result": 4.28}]}
{"smiles": "Clc1cccc(C[n+]2ccc(Cn3c4ccccc4c4ccccc43)cc2)c1", "values": [{"measurement": "pIC50", "setting": "Cholinesterase [1]", "result": 6.46}, {"measurement": "Ratio IC50", "setting": "[2]", "result": 26.6}, {"measurement": "pIC50", "setting": "Acetylcholinesterase", "result": 5.03}]}
{"smiles": "Fc1cccc(C[n+]2cccc(Cn3c4ccccc4c4ccccc43)c2)c1", "values": [{"measurement": "pIC50", "setting": "Cholinesterase [1]", "result": 6.12}, {"measurement": "Ratio IC50", "setting": "[2]", "result": "> 133"}, {"measurement": "pIC50", "setting": "Acetylcholinesterase", "result": "< 4.00"}]}
{"smiles": "Clc1ccc(C[n+]2cccc(Cn3c4ccccc4c4ccccc43)c2)cc1.[Cl-]", "values": [{"measurement": "Ratio IC50", "setting": "[7]", "result": 4.8}, {"measurement": "Activity", "setting": "Rattus norvegicus [8]", "result": "Active"}, {"measurement": "viability at 10 µM", "setting": "PC-12 [9]", "result": 66, "unit": "%"}, {"measurement": "Activity", "setting": "Rattus norvegicus [10]", "result": "inactive"}, {"measurement": "pIC50", "setting": "Cholinesterase [1]", "result": 7.14}, {"measurement": "Activity", "setting": "PC-12 [11]", "result": "Toxic"}, {"measurement": "pKi", "setting": "Cholinesterase [12]", "result": 7.05}, {"measurement": "Activity", "setting": "Rattus norvegicus [13]", "result": "Active"}, {"measurement": "Ratio IC50", "setting": "[14]", "result": 129}, {"measurement": "Ratio IC50", "setting": "[2]", "result": 274}, {"measurement": "pIC50", "setting": "Acetylcholinesterase", "result": 4.70}, {"measurement": "Activity", "setting": "PC-12 [15]", "result": "inactive"}, {"measurement": "Activity", "setting": "Rattus norvegicus [16]", "result": "Active"}, {"measurement": "inhibition", "setting": "[6]", "result": 49.9, "unit": "%"}]}
{"smiles": "Cc1cccc(C[n+]2cccc(Cn3c4ccccc4c4ccccc43)c2)c1", "values": [{"measurement": "pIC50", "setting": "Cholinesterase [1]", "result": 6.55}, {"measurement": "Ratio IC50", "setting": "[2]", "result": 236}, {"measurement": "pIC50", "setting": "Acetylcholinesterase", "result": 4.18}]}
{"smiles": "Fc1ccc(C[n+]2cccc(Cn3c4ccccc4c4ccccc43)c2)cc1", "values": [{"measurement": "pIC50", "setting": "Cholinesterase [1]", "result": 6.89}, {"measurement": "Ratio IC50", "setting": "[2]", "result": 225}, {"measurement": "pIC50", "setting": "Acetylcholinesterase", "result": 4.53}]}
{"smiles": "Clc1cccc(C[n+]2cccc(Cn3c4ccccc4c4ccccc43)c2)c1", "values": [{"measurement": "pIC50", "setting": "Cholinesterase [1]", "result": 6.80}, {"measurement": "Ratio IC50", "setting": "[2]", "result": 205}, {"measurement": "pIC50", "setting": "Acetylcholinesterase", "result": 4.48}]}
{"smiles": "Clc1ccccc1C[n+]1ccc(Cn2c3ccccc3c3ccccc32)cc1", "values": [{"measurement": "pIC50", "setting": "Cholinesterase [1]", "result": 6.23}, {"measurement": "Ratio IC50", "setting": "[2]", "result": 11.5}, {"measurement": "pIC50", "setting": "Acetylcholinesterase", "result": 5.17}]}
{"smiles": "Cc1cccc(C[n+]2ccc(Cn3c4ccccc4c4ccccc43)cc2)c1", "values": [{"measurement": "pIC50", "setting": "Cholinesterase [1]", "result": 6.14}, {"measurement": "Ratio IC50", "setting": "[2]", "result": 24}, {"measurement": "pIC50", "setting": "Acetylcholinesterase", "result": 4.76}]}
{"smiles": "Fc1ccc(C[n+]2ccc(Cn3c4ccccc4c4ccccc43)cc2)cc1", "values": [{"measurement": "pIC50", "setting": "Cholinesterase [1]", "result": 6.05}, {"measurement": "Ratio IC50", "setting": "[2]", "result": 21.1}, {"measurement": "pIC50", "setting": "Acetylcholinesterase", "result": 4.73}]}
